Molecular target: T1, ΔF508-CFTR (Homo sapiens, UniProt P13569, DEL508-508)
T1 construct: expressed in transfected cells; host or cells: CFSMEo- (human CF submucosal gland epithelial cells, ΔF508/Q2X), transiently transfected by nucleofection
Assay: ΔF508-CFTR-HRP trafficking assay (cell surface expression of ΔF508-CFTR)
Format: cell-based
Details: CFSMEo- cells transiently transfected with ΔF508-CFTR-HRP; test agent 3 μM, 48 h; HRP chemiluminescence
How it was run: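 Surface-expressed ΔF508-CFTR measured via extracellular HRP tag: cell-impermeable chemiluminescent substrate, 5 min, signal normalized to 0.3% DMSO vehicle.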

T1 sequence (P13569 with tags, fused parts or gaps DEL508-508): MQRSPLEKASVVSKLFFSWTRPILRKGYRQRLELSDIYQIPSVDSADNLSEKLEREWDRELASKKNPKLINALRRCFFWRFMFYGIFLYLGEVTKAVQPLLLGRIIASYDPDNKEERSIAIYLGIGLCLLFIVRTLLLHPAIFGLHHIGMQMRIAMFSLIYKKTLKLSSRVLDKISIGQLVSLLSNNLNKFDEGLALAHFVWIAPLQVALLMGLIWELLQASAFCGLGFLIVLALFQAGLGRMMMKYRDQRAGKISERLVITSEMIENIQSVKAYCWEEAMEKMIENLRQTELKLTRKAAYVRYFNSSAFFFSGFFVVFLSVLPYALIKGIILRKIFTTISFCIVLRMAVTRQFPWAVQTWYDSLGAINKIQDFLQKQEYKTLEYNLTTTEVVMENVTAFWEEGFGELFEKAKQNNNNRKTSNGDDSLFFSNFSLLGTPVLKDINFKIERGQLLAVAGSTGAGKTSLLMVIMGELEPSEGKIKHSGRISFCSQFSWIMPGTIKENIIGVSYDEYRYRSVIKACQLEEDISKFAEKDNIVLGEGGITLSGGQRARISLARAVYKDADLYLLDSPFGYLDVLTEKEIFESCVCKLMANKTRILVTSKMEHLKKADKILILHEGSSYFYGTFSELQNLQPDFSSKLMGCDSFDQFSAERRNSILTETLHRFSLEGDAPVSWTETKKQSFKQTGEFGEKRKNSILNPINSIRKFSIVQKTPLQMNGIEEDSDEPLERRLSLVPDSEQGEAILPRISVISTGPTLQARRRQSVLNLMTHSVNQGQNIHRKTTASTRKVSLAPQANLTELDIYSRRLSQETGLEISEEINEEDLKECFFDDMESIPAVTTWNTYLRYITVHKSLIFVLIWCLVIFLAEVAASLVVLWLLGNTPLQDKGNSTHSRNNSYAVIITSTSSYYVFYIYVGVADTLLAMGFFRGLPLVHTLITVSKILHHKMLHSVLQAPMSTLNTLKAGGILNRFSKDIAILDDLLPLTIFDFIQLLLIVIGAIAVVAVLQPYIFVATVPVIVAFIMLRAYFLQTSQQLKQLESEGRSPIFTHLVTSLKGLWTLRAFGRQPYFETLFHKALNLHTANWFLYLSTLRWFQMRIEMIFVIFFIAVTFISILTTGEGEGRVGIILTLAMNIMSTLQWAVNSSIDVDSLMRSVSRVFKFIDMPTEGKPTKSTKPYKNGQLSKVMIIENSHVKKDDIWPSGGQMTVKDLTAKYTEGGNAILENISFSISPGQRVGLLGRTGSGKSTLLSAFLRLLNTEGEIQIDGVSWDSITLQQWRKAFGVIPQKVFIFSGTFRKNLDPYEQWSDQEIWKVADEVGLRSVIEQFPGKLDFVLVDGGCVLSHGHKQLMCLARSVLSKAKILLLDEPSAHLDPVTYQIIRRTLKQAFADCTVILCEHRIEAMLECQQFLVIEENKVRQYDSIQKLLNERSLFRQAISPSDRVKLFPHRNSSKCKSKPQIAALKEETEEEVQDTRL

| RLUs: ΔF508-CFTR-HRP trafficking data normalized to the vehicle treated control (0.3% DMSO) | SMILES |
| --- | --- |
| B (RLU 3.5 μM-5.0 μM) | CC(Oc1cccc(-n2nc(C(F)(F)F)c3c2C(Oc2ccc(C(=O)O)cc2)CCC3)c1)c1ccc2c(c1)OC(F)(F)O2 (centres unmarked) [Example 19, 4-[[1-[3-[1-(2,2-difluoro-1,3-benzodioxol-5-yl)ethoxy]phenyl]-3-(trifluoromethyl)-4,5,6,7-tetrahydroindazol-7-yl]oxy]benzoic acid] |
| A (RLU 5.0 μM-10 μM) | C[C@@H](Oc1cc(-n2nc(C(F)(F)F)c3c2C(Oc2ccc(C(=O)O)cc2)CCC3)ccn1)c1ccc2c(c1)OC(F)(F)O2 (stereo partly drawn) [Example 21, 4-[[1-[2-[(1R)-1-(2,2-difluoro-1,3-benzodioxol-5-yl)ethoxy]-4-pyridyl]-3-(trifluoromethyl)-4,5,6,7-tetrahydroindazol-7-yl]oxy]benzoic acid] |
| B (RLU 3.5 μM-5.0 μM) | C[C@H](Oc1cc(-n2nc(C(F)(F)F)c3c2C(Oc2ccc(C(=O)O)cc2)CCC3)ccn1)c1ccc2c(c1)OC(F)(F)O2 (stereo partly drawn) [Example 22, 4-[[1-[2-[(1S)-1-(2,2-difluoro-1,3-benzodioxol-5-yl)ethoxy]-4-pyridyl]-3-(trifluoromethyl)-4,5,6,7-tetrahydroindazol-7-yl]oxy]benzoic acid] |
| B (RLU 3.5 μM-5.0 μM) | C[C@H](Oc1cccc(-n2nc(C(F)(F)F)c3c2C(Oc2ccc(C(=O)O)cc2)CCC3)c1)c1ccc2c(c1)OC(F)(F)O2 (some centres unmarked) [Example 29] |
| B (RLU 3.5 μM-5.0 μM) | C[C@H](Oc1cncc(-n2nc(C(F)(F)F)c3c2C(Nc2ccc(C(=O)O)cc2)CCC3)c1)c1ccc2c(c1)OC(F)(F)O2 (stereo partly drawn) [Example 69, 4-[[1-[5-[(1S)-1-(2,2-difluoro-1,3-benzodioxol-5-yl)ethoxy]-3-pyridyl]-3-(trifluoromethyl)-4,5,6,7-tetrahydroindazol-7-yl]amino]benzoic acid] |
| A (RLU 5.0 μM-10 μM) | C[C@H](Oc1cccc(-n2nc(C(F)(F)F)c3c2C(Sc2ccc(C(=O)O)cc2)CCC3)c1)c1ccc2c(c1)OC(F)(F)O2 (stereo partly drawn) [Example 70, 4-((1-(3-((S)-1-(2,2-difluorobenzo[d][1,3]dioxol-5-yl)ethoxy)phenyl)-3-(trifluoromethyl)-4,5,6,7-tetrahydro-1H-indazol-7-yl)thio)benzoic acid] |
| C (RLU 0.0 μM-3.5 μM) | C[C@H](Oc1cccc(-n2nc(C(F)(F)F)c3c2C(S(=O)(=O)c2ccc(C(=O)O)cc2)CCC3)c1)c1ccc2c(c1)OC(F)(F)O2 (stereo partly drawn) [Example 71, 4-[[1-[3-[(1S)-1-(2,2-difluoro-1,3-benzodioxol-5-yl)ethoxy]phenyl]-3-(trifluoromethyl)-4,5,6,7-tetrahydroindazol-7-yl]sulfonyl]benzoic acid] |

The remaining lines, values behind:

| SMILES | RLUs: ΔF508-CFTR-HRP trafficking data normalized to the vehicle treated control (0.3% DMSO) |
| --- | --- |
| O=C(O)c1ccc(OC2CCCc3c(C(F)(F)F)nn(-c4cccc(OCc5ccc6c(c5)OC(F)(F)O6)c4)c32)cc1 (centres unmarked) [Example 20, 4-[[1-[3-[(2,2-difluoro-1,3-benzodioxol-5-yl)methoxy]phenyl]-3-(trifluoromethyl)-4,5,6,7-tetrahydroindazol-7-yl]oxy]benzoic acid] | B (RLU 3.5 μM-5.0 μM) |
| C[C@@H](Oc1cccc(-n2nc(C(F)(F)F)c3c2C(Oc2ccc(C(=O)O)cc2)CCC3)c1)c1cc2c(cn1)OC(F)(F)O2 (some centres unmarked) [Example 30] | B (RLU 3.5 μM-5.0 μM) |
| C[C@H](Oc1cccc(-n2nc(C(F)(F)F)c3c2C(Oc2ccc(C(=O)O)cc2)CCC3)c1)c1cc2c(cn1)OC(F)(F)O2 (some centres unmarked) [Example 31] | C (RLU 0.0 μM-3.5 μM) |
| C[C@@H](Oc1cccc(-n2nc(C(F)(F)F)c3c2C(Oc2ccc(C(=O)O)cc2)CCC3)c1)c1cc2c(cc1F)OC(F)(F)O2 (stereo partly drawn) [Example 32, 4-[[1-[3-[(1R)-1-(2,2,6-trifluoro-1,3-benzodioxol-5-yl)ethoxy]phenyl]-3-(trifluoromethyl)-4,5,6,7-tetrahydroindazol-7-yl]oxy]benzoic acid] | B (RLU 3.5 μM-5.0 μM) |
| C[C@H](Oc1cccc(-n2nc(C(F)(F)F)c3c2C(Oc2ccc(C(=O)O)cc2)CCC3)c1)c1cc2c(cc1F)OC(F)(F)O2 (stereo partly drawn) [Example 33, 4-[[1-[3-[(1S)-1-(2,2,6-trifluoro-1,3-benzodioxol-5-yl)ethoxy]phenyl]-3-(trifluoromethyl)-4,5,6,7-tetrahydroindazol-7-yl]oxy]benzoic acid] | B (RLU 3.5 μM-5.0 μM) |
| Cc1cc(OC2CCCc3c(C(F)(F)F)nn(-c4cccc(O[C@@H](C)c5cc6c(cc5F)OC(F)(F)O6)c4)c32)ccc1C(=O)O (some centres unmarked) [Example 35] | B (RLU 3.5 μM-5.0 μM) |
| C[C@@H](Oc1cccc(-n2nc(C(F)(F)F)c3c2C(O[C@H]2CC[C@H](C(=O)O)CC2)CCC3)c1)c1ccc2c(c1)OC(F)(F)O2 (some centres unmarked) [Example 38] | A (RLU 5.0 μM-10 μM) |
| C[C@@H](Oc1cc(-n2nc(C(F)(F)F)c3c2C(OC24CC(C(=O)O)(C2)C4)CCC3)ccn1)c1ccc2c(c1)OC(F)(F)O2 (some centres unmarked) [Example 40] | A (RLU 5.0 μM-10 μM) |
| C[C@@H](Oc1cccc(-n2nc(C(F)(F)F)c3c2C(OC24CC(C(=O)O)(C2)C4)CCC3)c1)c1ccc2c(c1)OC(F)(F)O2 (stereo partly drawn) [Example 41, 3-[[1-[3-[(1R)-1-(2,2-difluoro-1,3-benzodioxol-5-yl)ethoxy]phenyl]-3-(trifluoromethyl)-4,5,6,7-tetrahydroindazol-7-yl]oxy]bicyclo[1.1.1]pentane-1-carboxylic acid] | A (RLU 5.0 μM-10 μM) |
| C[C@H](Oc1cc(-n2nc(C(F)(F)F)c3c2[C@@H](OC24CC(C(=O)O)(C2)C4)CCC3)ccn1)c1ccc2c(c1)OC(F)(F)O2 [Example 51] | A (RLU 5.0 μM-10 μM) |
| C[C@H](Oc1cc(-n2nc(C(F)(F)F)c3c2[C@H](OC24CC(C(=O)O)(C2)C4)CCC3)ccn1)c1ccc2c(c1)OC(F)(F)O2 [Example 52, 3-[[(7R)-1-[2-[(1S)-1-(2,2-difluoro-1,3-benzodioxol-5-yl)ethoxy]-4-pyridyl]-3-(trifluoromethyl)-4,5,6,7-tetrahydroindazol-7-yl]oxy]bicyclo[1.1.1]pentane-1-carboxylic acid] | C (RLU 0.0 μM-3.5 μM) |
| CC(Sc1cccc(-n2nc(C(F)(F)F)c3c2C(Oc2ccc(C(=O)O)cc2)CCC3)c1)c1ccc2c(c1)OC(F)(F)O2 (centres unmarked) [Example 116, 4-[[1-[3-[1-(2,2-difluoro-1,3-benzodioxol-5-yl)ethylsulfanyl]phenyl]-3-(trifluoromethyl)-4,5,6,7-tetrahydroindazol-7-yl]oxy]benzoic acid] | B (RLU 3.5 μM-5.0 μM) |
| CC(c1ccc2c(c1)OC(F)(F)O2)[S+]([O-])c1cccc(-n2nc(C(F)(F)F)c3c2C(Oc2ccc(C(=O)O)cc2)CCC3)c1 (centres unmarked) [Example 117, 4-[[1-[3-[1-(2,2-difluoro-1,3-benzodioxol-5-yl)ethylsulfinyl]phenyl]-3-(trifluoromethyl)-4,5,6,7-tetrahydroindazol-7-yl]oxy]benzoic acid] | C (RLU 0.0 μM-3.5 μM) |
| CC(c1ccc2c(c1)OC(F)(F)O2)S(=O)(=O)c1cccc(-n2nc(C(F)(F)F)c3c2C(Oc2ccc(C(=O)O)cc2)CCC3)c1 (centres unmarked) [Example 118, 4-[[1-[3-[1-(2,2-difluoro-1,3-benzodioxol-5-yl)ethylsulfonyl]phenyl]-3-(trifluoromethyl)-4,5,6,7-tetrahydroindazol-7-yl]oxy]benzoic acid] | C (RLU 0.0 μM-3.5 μM) |
| CC(c1ccc2c(c1)OC(F)(F)O2)C1(c2cc(-n3nc(C(F)(F)F)c4c3C(Oc3ccc(C(=O)O)cc3)CCC4)ccn2)COC1 (centres unmarked) [Example 119, 4-[[1-[2-[3-[1-(2,2-difluoro-1,3-benzodioxol-5-yl)ethyl]oxetan-3-yl]-4-pyridyl]-3-(trifluoromethyl)-4,5,6,7-tetrahydroindazol-7-yl]oxy]benzoic] | C (RLU 0.0 μM-3.5 μM) |
| C[C@H](Oc1cccc(-n2nc(C(F)(F)F)c3c2C(S(=O)(=O)N2CCC(C(=O)O)CC2)CCC3)c1)c1ccc2c(c1)OC(F)(F)O2 (some centres unmarked) [Example 123] | B (RLU 3.5 μM-5.0 μM) |
